According to PubChem BioAssay (NCI):
Where “and” joins values, the source holds several entries; their conditions need not be identical. Equal entries are not always repeated.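 Compound exposure: 48 hours, 5 concentrations, 96-well plates. GI50 = concentration required for 50% inhibition of growth. The concentration for full growth arrest is given as TGI.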

Test system: MDA-MB-468 breast
Assay: growth of human tumour cells (NCI), 48 h

Compound | GI50 | TGI
Cc1ccc2cnc(N)c(C#Cc3cc(C(=O)Nc4ccc(CN5CCN(C)CC5)c(C(F)(F)F)c4)cnc3C)c2c1 | 0.932 µM | 2.08 µM
O=C1/C(=C/c2ccc([N+](=O)[O-])cc2)CN(C(=O)CCN2CCC(=NO)CC2)C/C1=C\c1ccc([N+](=O)[O-])cc1 | 1.06 µM | 3.61 µM
Cn1ncc(-c2ccc3c(=O)[nH]nc(CN)c3c2)c1-c1c(F)c(Cl)cc(OC2CC2)c1C#N | 11.7 µM and 10.2 µM | 24.8 µM and 22.5 µM
COc1cc(C)ccc1C(=O)c1ccc(C)cc1OC | 1.39 µM | > 100 µM
COc1ccc2c(c1)C(=O)/C(=C/c1cccc(OCC(=O)c3ccccc3)c1)CC2 | 2.68 µM | 74.2 µM
Nc1nc2ccc(-c3nc4ccc5[nH]ncc5c4c4c3CCC4)cc2s1 | 0.182 µM | 4.36 µM
COc1cc(/C=C/C(=O)/C=C/c2cc(OC)c3c(c2)OCO3)cc2c1OCO2 | 3.46 µM | 28.3 µM
O=C(NCC1CC1)c1ccc(-c2cccc(C(=O)NC3CC3)c2)cc1 | > 25 µM | > 25 µM
CCc1c2c(nc3ccc(OCc4ccc(B(O)O)cc4)cc13)-c1cc3c(c(=O)n1C2)COC(=O)[C@]3(O)CC | < 0.01 µM | 0.0355 µM
CCOc1ccccc1CCN=C1NC(=O)/C(=C/c2ccc3ncccc3c2)S1 | 1.16 µM | > 16.9 µM
Cc1c2cnccc2c(C)c2c1c1cc(C#N)ccc1n2C | 0.228 µM | 0.741 µM
CCCN1C(=O)NC(=O)C(CC)(N2C(=O)c3c(F)c(F)c(F)c(F)c3C2=O)C1=O (stereo not given) | 1.54 µM | 3.93 µM
O=C(Nc1cccc(Cl)c1)Nn1cnnc1 | > 50 µM | > 50 µM
CCOC(=O)Oc1c(OC)cc(C(=O)c2ccc(OC)c(O)c2OC)cc1OC | 2.65 µM | > 100 µM
O=C1OCC2=C1C(c1cccc(F)c1)c1cc3c(cc1N2CCO)OCO3 (stereo not given) | 1.12 µM | > 50 µM
CC1=C([Se]CC(OC(=O)CC[Se]c2ccccc2)C(=O)NC(C)(C)C)C(=O)c2ccccc2C1=O (stereo not given) | 0.509 µM | 2.06 µM
CCSC1=NC2C(N(CC)C(=O)N2CC)N1/N=C/C=C/c1ccccc1[N+](=O)[O-] (stereo not given) | 0.1 µM | –
CCCCN(CCCC)Cc1cc(Nc2ccnc3cc(Cl)ccc23)ccc1O | 4.94 µM | > 100 µM
